From publication PMC3269340, “Pharmacokinetics of memantine in rats and mice” (PLoS Currents, 2012)

Tests used:
[1] = Stability in rat liver microsomes; format: in vitro ADME; conditions: 0.5 mg/mL pooled male microsomes, read-out: Intrinsic Clearance (Cl int) Liver Microsomes
Description: Memantine (1 μM) was incubated in 0.5 mg/mL of pooled male rat, mouse, or human liver microsomes (obtained commercially), in 0.1 M phosphate buffer at 37 °C. After pre-warming the mixture for 5 min, reactions were initiated by the addition of NADPH (1 mM). Aliquots (80 μL) were taken at 0, 5, 10, 20 and 40 min, and the reaction immediately terminated by adding into 80 μL of acetonitrile containing an analytical internal standard (IS). Samples were centrifuged and the supernatant fractions analyzed by LC-MS/MS with multiple reaction monitoring (MRM). All incubations were performed in duplicate. Testosterone was used as the positive control. The MRM area response ratio of the analyte over IS for Time=0(control) was set to 100%, the relative decrease in MRM area ratio intensity over time against that of the control (percent parent decrease) was used to determine the half-life (t1/2) of memantine in the incubation. Half-life values were calculated from the relationship:
t1/2 (min) = -0.693/λ, where λ is the slope of the Ln concentration vs time curve. The intrinsic clearance (Clint) was calculated as:
Clint = (0.693 x incubation volume (μL))/(t½ (min) x mg of microsomal protein)

[2] = Metabolite identification in rat liver microsomes; format: in vitro ADME; conditions: 10 µM, 1 mg/mL rat liver microsomal protein, 60 min
Description: Metabolites of memantine were characterized following incubation in pooled rat liver microsomes. Incubation conditions were as described above (Section 4.1), except that for metabolite identification the memantine concentration was 10 µM, 1 mg/mL of liver microsomal protein was used, and the metabolites were identified following a 60 min incubation period. Control incubations (T=0 min) were used as reference, and testosterone incubations were used as a positive control.
Full scan mass spectra were acquired by TOF-MS as accurate mass. The instruments were controlled and data acquired by Waters MassLynx™ version 4.1 (SCN 714) software. The TOF-MS spectra were interrogated and metabolite reports generated by Waters MetaboLynx™ XS software.

[3] = molecular target: T1, human PEPT2 (Homo sapiens, UniProt Q16348); assay: Indirect uptake transporter assay, PEPT2; format: in vitro ADME
T1 construct: expressed in transfected cells; host or cells: CHO cells
T1 sequence (Q16348 1-729): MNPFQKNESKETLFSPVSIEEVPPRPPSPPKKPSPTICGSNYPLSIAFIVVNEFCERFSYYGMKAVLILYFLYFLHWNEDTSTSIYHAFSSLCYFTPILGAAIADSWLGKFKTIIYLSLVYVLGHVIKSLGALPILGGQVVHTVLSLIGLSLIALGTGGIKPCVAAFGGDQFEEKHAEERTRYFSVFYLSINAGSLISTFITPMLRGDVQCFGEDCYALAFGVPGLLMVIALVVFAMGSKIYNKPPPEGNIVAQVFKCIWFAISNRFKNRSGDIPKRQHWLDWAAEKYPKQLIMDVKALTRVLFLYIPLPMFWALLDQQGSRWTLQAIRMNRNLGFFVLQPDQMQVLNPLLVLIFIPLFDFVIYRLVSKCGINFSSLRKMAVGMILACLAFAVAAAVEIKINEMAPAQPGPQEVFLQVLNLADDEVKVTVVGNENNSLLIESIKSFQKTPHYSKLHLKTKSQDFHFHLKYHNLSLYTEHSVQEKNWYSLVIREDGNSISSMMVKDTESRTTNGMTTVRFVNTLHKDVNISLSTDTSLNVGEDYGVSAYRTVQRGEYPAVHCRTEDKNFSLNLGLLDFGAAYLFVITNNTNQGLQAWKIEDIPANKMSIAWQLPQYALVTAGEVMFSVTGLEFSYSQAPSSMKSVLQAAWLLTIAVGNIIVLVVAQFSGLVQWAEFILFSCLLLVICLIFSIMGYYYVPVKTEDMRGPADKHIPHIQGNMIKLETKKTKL
Excerpt: To determine whether memantine is an inhibitor of the human OATP2B1 (OATP-B), OCT1, OCT2, OAT3, PEPT1, PEPT2 uptake transporters. The standard uptake transporter assay is an indirect, inhibitory-type screening assay, performed with cold test article, which in this case was memantine. It provides information on any interaction (substrate or inhibitor) between selected uptake transporters and memantine that would affect the transport of the reporter compound. […] A radiolabeled reporter substrate is transported into the cells transfected with the selected human uptake transporter, and the inhibitory effect of memantine on the transport of this reporter substrate is measured. Values are presented on a relative scale; 100% defined as transport in the presence of the solvent and without memantine (no inhibition), and 0% defined as transport detected without transporter activity. IC50 is defined as the concentration required to inhibit the transport of the reporter substrate by 50%. […]
After the experiment cells were rinsed with 2 x 100µl of Krebs-Henseleit buffer and lysed with 50 µl of 0.1M NaOH. ^3H-estrone-3-sulfate, ^14C-TEA, ^14C-metformin and ^3H-Gly-Sar transport was determined by total radioactivity by transferring an aliquot (35µl) from each well to a vial containing liquid scintillant for analysis.

[4] = tested on: rat AD model; conditions: cited from earlier work

CC12CC3CC(C)(C1)CC(N)(C3)C2 [memantine]
microsomal CLint at 1 μM [1]: 50.4 µL/min/mg
most abundant metabolite (based on uv signal response) [2]: product of a single aliphatic hydroxylation
IC50 ([3]; PEPT2, probe printed in Table 5: E3S (0.3µM), methods and text: Gly-Sar): ND (Not Determined (< 50% inhibition))
inhibition at 300 µM ([3]; at 300 µM, read-out: inhibition of PEPT2-mediated glycylsarcosine transport): 22%
cognition [4]: improved cognition
neuroprotection [4]: elicited neuroprotective effects
